The test deals with PBMCs from cancer patients and healthy donors. The experiment in a line: in vitro IFNγ ELISPOT of PBMCs after 7 days with peptide and IL-2. Particulars: for cancer patients showing responses in IFNγ ELISPOT: out of 16 cancer patients (8 melanoma, 6 multiple myeloma, 1 breast cancer, 1 renal cell carcinoma); for cancer patients showing responses in IFNγ ELISPOT / healthy donors showing responses in IFNγ ELISPOT: strong responses counted for ArgLong2, FIG. 2; for healthy donors showing responses in IFNγ ELISPOT: out of 19 healthy donors; for responses in IFNγ ELISPOT (in words): PBMCs from 6 healthy donors, peptide and low dose IL-2 for 1 week, FIG. 1. The test is classed as cell-based, human. As to the method:
PBMCs from healthy donors were isolated using density gradient separation over LymphoprepTM (STEMCELL Technologies) and cryopreserved at -150° C. in FBS supplemented with 10% DMSO. PBMCs from cancer patients were isolated from blood sample a minimum of four weeks after the termination of any anti-cancer therapy. The protocol was approved by the Scientific Ethics Committee for The Capital Region of Denmark and conducted in accordance with the provisions of the Declaration of Helsinki. Written informed consent from the patients was obtained before study entry. […] The sequences of the peptides used in these experiments are shown in full below in alignment with each other, and are also set out in the section entitled “Sequences”). Peptides are described by SEQ ID NO, by name, or by reference to the start and end positions of each peptide sequence within the full length sequence of Arginase 1. Each may be used interchangeably. For example, the peptide of SEQ ID NO: 1 may alternatively be referred to by the name ArgLong2, or may alternatively be referred to as […]-206 (given a start position of 169 and end position of 206). The intended reference in each case will be clear from the context. For in vitro ELISPOT, PBMCs from cancer patients and healthy donors were pulsed with 20 μM of Arginase 1-derived peptides and 120 U/ml IL-2 in 24-well plates for 7 days before being used in an ELISPOT assay. The cells were placed in 96-well nitrocellulose ELISPOT plates (MultiScreen MAIP […]; Millipore) pre-coated with IFNγ capture antibody (Mabtech). Arginase peptides added to a final concentration of 5 μM and plates incubated at 37° C. for 14-16 hours. After the incubation the cells were washed off and secondary biotinylated Ab (Mabtech, cat. 3420-6-1000) was added for 2 hours at room temperature. Unbound secondary antibody was washed off and streptavidin conjugated alkaline phosphatase (AP) (Mabtech, cat. 3310-10) was added for 1 hour at room temperature. Unbound conjugated enzyme was washed off and the assay was developed by adding BCIP/NBT substrate (Mabtech, cat. 3650-10). Developed ELISPOT plates were analyzed on CTL ImmunoSpot S6 Ultimate-V analyzer using Immunospot software v5.1. Responses were reported as the difference between average numbers of spots in wells stimulated with Arginase 1 and wells without added peptide.

Turning to “AKDIVYIGLRDVDPGEHYIL (Peptide fragment of human Arginase 1 (Arg1-18)) [Arg171-190, previously described 20-mer Arginase 1 peptide (WO2018065563), reference compound]”, the “cancer patients showing responses in IFNγ ELISPOT” value (from here on “cancer patients showing responses”) was found to be 3 cancer patients and the “healthy donors showing responses in IFNγ ELISPOT” value (from here on “healthy donors showing responses”) amounted to 3 healthy donors.

Regarding “DVDPGEHYILKTLGIKYFSM (Peptide fragment of human Arginase 1 (Arg1-19)) [Arg181-200, previously described 20-mer Arginase 1 peptide (WO2018065563), reference compound]”, the “cancer patients showing responses” value came to 6 cancer patients and the “healthy donors showing responses” value was 4 healthy donors.

For the sequence “ISAKDIVYIGLRDVDPGEHYILKTLGIKYFSM (Peptide fragment of human Arginase 1 (ArgLong3)) [32-mer, positions 169-200 of full length human Arginase 1]”, the “responses in IFNγ ELISPOT (in words)” value is reported as “low or no responses”.

“ISAKDIVYIGLRDVDPGEHYILKTLGIKYFSMTEVDRLGIGK (Peptide fragment of human Arginase 1 (ArgLong)) [42-mer, positions 169-210 of full length human Arginase 1]”: the “responses in IFNγ ELISPOT (in words)” value is reported as “low or no responses”.

For “KTLGIKYFSMTEVDRLGIGK (Peptide fragment of human Arginase 1 (Arg1-20)) [Arg191-210, previously described 20-mer Arginase 1 peptide (WO2018065563), reference compound]”, the “cancer patients showing responses” value turned out to be 3 cancer patients and the “healthy donors showing responses” value turned out to be 7 healthy donors.

(Values after patent US12194081B2, “ARGINASE1 polypeptides” (IO BIOTECH APS, priority 2018, dated 2025).)
